In US20020028938A1, “Prostaglandin endoperoxide H synthase biosynthesis inhibitors” (priority 1997, published 2002):

Key:
[1] = target: T1, human amnionic whole cell cyclooxygenase-2 (WISH cells) (Homo sapiens, UniProt P35354); experiment: IL-1β induced PGE2 production in WISH cells; format: cell-based; conditions: for IC50: read-out: Wish IC50 (parenthetical value)
T1 construct: endogenous in cells; host or cells: human amnionic WISH cells, induced with IL-1beta
T1 sequence (P35354 18-604): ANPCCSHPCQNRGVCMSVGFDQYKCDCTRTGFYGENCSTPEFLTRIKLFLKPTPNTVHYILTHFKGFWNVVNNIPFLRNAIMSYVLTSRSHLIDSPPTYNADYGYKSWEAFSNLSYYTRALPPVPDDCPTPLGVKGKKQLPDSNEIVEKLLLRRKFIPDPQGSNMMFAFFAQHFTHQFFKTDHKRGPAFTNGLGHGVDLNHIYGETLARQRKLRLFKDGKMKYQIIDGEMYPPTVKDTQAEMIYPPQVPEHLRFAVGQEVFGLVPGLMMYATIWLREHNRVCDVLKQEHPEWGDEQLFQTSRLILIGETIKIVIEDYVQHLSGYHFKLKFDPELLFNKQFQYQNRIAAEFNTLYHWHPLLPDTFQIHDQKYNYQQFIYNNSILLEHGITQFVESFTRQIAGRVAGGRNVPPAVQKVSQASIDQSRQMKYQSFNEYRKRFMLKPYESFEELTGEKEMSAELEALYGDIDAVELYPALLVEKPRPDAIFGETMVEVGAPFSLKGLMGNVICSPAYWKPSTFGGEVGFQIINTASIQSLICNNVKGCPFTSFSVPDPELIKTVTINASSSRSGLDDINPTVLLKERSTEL
Procedure, shortened: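 Confluent (80%) WISH cells were stimulated with 5 ng/ml IL-1β in serum-free Neuman-Tytell medium, with or without test compound in DMSO (0.01% v/v). PGE2 in the culture medium was measured by EIA against standards prepared in the same medium, read by optical density.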

[2] = target: T2, recombinant human Cox-1 (r-hu Cox1) (Homo sapiens, UniProt P23219); experiment: Recombinant human PGHS-1 enzyme assay (RHUCX1); format: biochemical; conditions: for inhibition at 1 µM / inhibition at 10 µM / inhibition at 100 µM: read-out: RHUCX1 % Inh. at Dose; for IC50: read-out: RHUCX1 IC50 (parenthetical value)
T2 construct: made in house; host or cells: baculovirus/Sf9 insect cells (microsomes)
T2 sequence (P23219 24-599): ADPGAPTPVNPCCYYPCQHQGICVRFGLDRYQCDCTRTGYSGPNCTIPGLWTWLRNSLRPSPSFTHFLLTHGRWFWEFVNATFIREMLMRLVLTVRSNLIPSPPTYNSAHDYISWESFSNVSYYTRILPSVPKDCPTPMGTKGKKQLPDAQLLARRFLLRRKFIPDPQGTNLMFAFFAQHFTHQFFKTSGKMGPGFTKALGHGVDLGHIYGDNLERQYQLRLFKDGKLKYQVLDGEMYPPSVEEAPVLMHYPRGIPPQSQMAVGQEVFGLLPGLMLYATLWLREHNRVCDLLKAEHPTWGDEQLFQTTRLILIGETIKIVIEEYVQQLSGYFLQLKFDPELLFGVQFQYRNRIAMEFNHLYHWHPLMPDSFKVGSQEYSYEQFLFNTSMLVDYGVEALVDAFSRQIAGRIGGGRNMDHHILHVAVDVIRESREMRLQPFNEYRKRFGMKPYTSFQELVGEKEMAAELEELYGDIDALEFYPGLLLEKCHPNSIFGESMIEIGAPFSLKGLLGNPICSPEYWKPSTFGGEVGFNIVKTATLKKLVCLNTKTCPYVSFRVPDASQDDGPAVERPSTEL
Procedure, shortened: (§1)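 Recombinant enzyme reaction ran 2.5 minutes at room temperature, then was quenched with HCl and neutralized with NaOH. PGE2 formed with and without drug was quantified by EIA against standards in the same milieu. Percent inhibition versus control mean; IC50 by linear regression.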

[3] = target: T3, Human Whole Platelet Cyclooxygenase-1 (Homo sapiens, UniProt P23219); experiment: Human Whole Platelet Cyclooxygenase-1 assay (HWPX); format: cell-based; conditions: for IC50: read-out: HWPX IC50 (parenthetical value)
T3 construct: from tissue; host or cells: human blood: isolated platelets (A4) or heparinised whole blood (A9)
T3 sequence (P23219 24-599): as above
Experimental: Blood from normal healthy volunteers is collected into tubes containing ACD (acid citrate dextrose) as the anticoagulant. This blood is centrifuged at 175×g to prepare platelet rich plasma. The platelet rich plasma is then centrifuged at 100×g to pellet the white blood cells, leaving the platelets in the supernatant. The supernatant is layered on a cushion of 0.7 mL of 10% bovine serum albumin in Tyrodes solution (Gibco; Grand Island, N.Y.) and then centrifuged at 1000×g. The resulting supernatant from this centrifuigation is then removed and 11 mL of Tyrodes solution is added to the remaining pellet of platelets. The platelets are then aliquoted at 120 μl into a 96 well plate. Experimental compounds are added and allowed to pre-incubate for 10 minutes. At the end of this pre-incubation period, the calcium ionophore A23187 is added to a final concentration of 8.8 μM and the incubation is continued for ten minutes. The reaction is stopped by adding cold 6 mM EDTA, the incubation mixture is centrifuged at 220×g, and the supernatants are then analyzed for thromboxane using a commercial kit from Cayman Chemical (Ann Arbor, Mich.

[4] = target: T4, recombinant human Cox-2 (r-hu Cox-2) (Homo sapiens, UniProt P35354); experiment: Recombinant human PGHS-2 enzyme assay (RHUCX2); format: biochemical; conditions: for IC50: read-out: RHUCX2 IC50 (parenthetical value)
T4 construct: made in house; host or cells: baculovirus/Sf9 insect cells (microsomes)
T4 sequence (P35354 18-604): T1 sequence (P35354 18-604)
Procedure, shortened: as §1

[5] = read-out: RHUCX2 % Inh. at Dose
[6] = read-out: HWPX % Inhib. at Dose
[7] = read-out: Wish % Inhib. at Dose

IC50 [1] | inhibition at 10 µM [2] | IC50 [3] | melting point | inhibition at 0.1 µM [4, 5] | inhibition at 100 µM [2] | inhibition at 1 µM [4, 5] | IC50 [4] | Structure (SMILES) | also measured
20 nM | 62% | 0.13 µM | 249 to 251 °C | 61% | – | – | – | CS(=O)(=O)c1ccc(-c2cnn(-c3ccc(Cl)s3)c(=O)c2-c2ccc(Cl)cc2)cc1 [Example 100, 2-(5-Chloro-2-thienyl)-4-(4-chlorophenyl)-5-[4-(methylsulfonyl)phenyl]-3(2H)-pyridazinone] | inhibition at 1 µM [2]: 65%; inhibition at 10 µM [4, 5]: 100%
44 nM | 82% | – | 192 to 194 °C | 73% | – | 100% | – | CC(c1ccc(F)c(F)c1F)n1ncc(-c2ccc(S(N)(=O)=O)cc2)c(-c2ccc(F)cc2)c1=O (stereo not drawn) [Example 146, 2-(α-Methyl-2,3,4-trifluorobenzyl)-4-(4-fluorophenyl)-5-[4-(aminosulfonyl)phenyl]-3(2H)-pyridazinone] | inhibition at 1 µM [2]: 53%; inhibition at 3 µM ([3]; 3 μM, read-out: HWPX % Inhib. at Dose): 46%; inhibition at 10 µM ([3]; 10 μM, read-out: HWPX % Inhib. at Dose): 84%
30 nM | – | 1.9 µM | 232 to 235 °C | – | 0% | – | 1080 nM | CS(=O)(=O)c1ccc(-c2cnn(-c3cccc(Cl)c3)c(=O)c2-c2ccc(F)cc2)cc1 [Example 165] | –
20 nM | 72% | 7.76 µM | 207 to 208 °C | 51% | – | 71% | – | Cc1cc(-c2c(-c3ccc(S(C)(=O)=O)cc3)cnn(-c3ccc(F)c(Cl)c3)c2=O)ccc1F [Example 247, 2-(3-Chloro-4-fluorophenyl)-4-(4-fluoro-3-mehylphenyl)-5-[4-(methylsulfonyl)phenyl]-3(2H)-pyridazinone] | inhibition at 1 µM [2]: 55%; inhibition at 10 µM [4, 5]: 99%
4 nM | – | 14.9 µM | 151 to 153 °C | 83% | 0% | 100% | – | CC(C)(C)COc1c(-c2ccc(S(C)(=O)=O)cc2)cnn(-c2cccc(Cl)c2)c1=O [Example 338, 2-(3-Chlorophenyl)-4-(2,2-dimethylpropoxy)-5-[4-(methylsulfonyl)phenyl]-3(2H)-pyridazinone] | –
– | – | 13.7 µM | 85 to 90 °C | 65% | 13% | 96% | – | CS(=O)(=O)c1ccc(-c2cnn(-c3cccc(Cl)c3)c(=O)c2C2CCCCC2)cc1 [Example 368, 2-(3-Chlorophenyl)-4-cyclohexyl-5-[4-(methylsulfonyl)phenyl]-3(2H)-pyridazinone] | inhibition at 0.01 µM [1, 7]: 33%; inhibition at 0.03 µM ([1]; 0.03 μM, read-out: Wish % Inhib. at Dose): 64%
20 nM | – | 8.4 µM | 222 to 224 °C | – | 8% | – | 48 nM | Cc1ccc(-c2c(-c3ccc(S(C)(=O)=O)cc3)cnn(-c3cccc(Cl)c3)c2=O)cc1 [Example 370, 2-(3-Chlorophenyl)-4-(4-methylphenyl)-5-[4-(methylsulfonyl)phenyl]-3(2H)-pyridazinone] | –
17 nM | – | 0.32 µM | 208 to 210 °C | 62% | – | 96% | – | NS(=O)(=O)c1ccc(-c2cnn(-c3ccc(F)c(Cl)c3)c(=O)c2-c2ccc(F)cc2)cc1 [Example 401, 2-(3-Chloro-4-fluorophenyl)-4-(4-fluorophenyl)-5-[4-(aminosulfonyl)phenyl]-3(2H)-pyridazinone] | IC50 [2]: 753 nM; inhibition at 0.01 µM [4, 5]: 48%

The next lines start with the molecule.

Structure (SMILES) | IC50 [1] | inhibition at 10 µM [2] | IC50 [3] | melting point | inhibition at 0.1 µM [4, 5] | inhibition at 100 µM [2] | inhibition at 1 µM [4, 5] | IC50 [4] | also measured
NS(=O)(=O)c1ccc(-c2cnn(CC(F)=C(F)F)c(=O)c2-c2ccc(F)cc2)cc1 [Example 141, 2-(2,3,3-Trifluoro-2-propen-1-yl)-4-(4-fluorophenyl)-5-[4-(aminosulfonyl)phenyl]-3(2H)-pyridazinone] | 4 nM | 62% | – | 173 to 175 °C | 95% | 55% | 99% | – | inhibition at 0.3 µM [3, 6]: 56%
C=C(F)C(F)(F)n1ncc(-c2ccc(S(N)(=O)=O)cc2)c(-c2ccc(F)cc2)c1=O [Example 142, 2-(1,1,2-Trifluoro-2-propenyl)-4-(4-fluorophenyl)-5-[4-(aminosulfonyl)phenyl]-3(2H)-pyridazinone] | 88 nM | 80% | 7.53 µM | 230 to 232 °C | 45% | – | 96% | – | inhibition at 1 µM [2]: 53%; inhibition at 0.01 µM [4, 5]: 32%
CC(c1cc(F)cc(F)c1)n1ncc(-c2ccc(S(N)(=O)=O)cc2)c(-c2ccc(F)cc2)c1=O (stereo not drawn) [Example 147, 2-(α-Methyl-3,5-difluorobenzyl)-4-(4-fluorophenyl)-5-[4-(aminosulfonyl)phenyl]-3(2H)-pyridazinone] | 29 nM | – | – | 139 to 141 °C | 64% | – | 100% | – | IC50 [2]: 67 nM; inhibition at 0.3 µM [3, 6]: 84%; inhibition at 0.03 µM ([4]; 0.03 μM, read-out: RHUCX2 % Inh. at Dose): 0%
C/C(=C\Cn1ncc(-c2ccc(S(N)(=O)=O)cc2)c(-c2ccc(F)cc2)c1=O)C(F)(F)F [Example 154] | – | – | – | 155 to 157 °C | – | – | – | 18 nM | inhibition at 0.01 µM [1, 7]: 69%; inhibition at 0.1 µM [1, 7]: 100%; IC50 [2]: 126 nM; inhibition at 0.1 µM ([3]; 0.1 μM, read-out: HWPX % Inhib. at Dose): 48%; inhibition at 0.3 µM [3, 6]: 81%
CS(=O)(=O)c1ccc(-c2cnn(-c3ccc(F)cc3)c(=O)c2C2CCCCC2)cc1 [Example 228, 2-(4-Fluorophenyl)-4-cyclohexyl-5-[4-(methylsulfonyl)phenyl]-3(2H)-pyridazinone] | 86 nM | – | 19.6 µM | 231 to 233 °C | – | 7% | – | 209 nM | –
CC(C)(C)COc1c(-c2ccc(S(N)(=O)=O)c(F)c2)cnn(CC(F)(F)F)c1=O [Example 381, 2-(2,2,2-Trifluoroethyl)-4-(2,2-dimethylpropoxy)-5-[3-fluoro-4-(aminosulfonyl)phenyl]-3(2H)-pyridazinone] | 75 nM | – | – | 144 to 145 °C | – | 0% | – | 188 nM | inhibition at 30 µM ([3]; 30 μM, read-out: HWPX % Inhib. at Dose): 31%; inhibition at 100 µM ([3]; 100 μM, read-out: HWPX % Inhib. at Dose): 91%
CC(C)CCc1c(-c2ccc(S(N)(=O)=O)cc2)cnn(-c2ccc(F)c(F)c2)c1=O [Example 404, 2-(3,4-Difluorophenyl)-4-(3-methylbutyl)-5-[4-(aminosulfonyl)phenyl]-3(2H)-pyridazinone] | – | 47% | 0.337 µM | 171 to 173 °C | 92% | 77% | – | – | inhibition at 0.01 µM [1, 7]: 58%; inhibition at 0.1 µM [1, 7]: 96%; inhibition at 0.01 µM [4, 5]: 57%
